{"source": "patent US7538098B2", "about": "“19-nor-vitamin D analogs with 1,2 or 3,2 heterocyclic ring” (Wisconsin Alumni Research Foundation, priority 2006, dated 2009)", "key": {"[1]": {"system": "24-hydroxylase (24Ohase) gene promoter in ROS 17/2.8 (bone) cells", "test": "In vitro transcription assay (luciferase reporter)", "format": "cell-based", "details": "FIG. 3; for pEC50: 24-hydroxylase promoter luciferase reporter, read-out: EC50, transcriptional activity in bone cells; for Transcriptional activity, result in words: 24-hydroxylase (CYP-24) promoter luciferase reporter", "method": "Transcription activity was measured in ROS 17/2.8 (bone) cells that were stably transfected with a 24-hydroxylase (24Ohase) gene promoter upstream of a luciferase reporter gene (Arbour et al., 1998). Cells were given a range of doses. Sixteen hours after dosing the cells were harvested and luciferase activities were measured using a luminometer. RLU=relative luciferase units"}, "[2]": {"system": "Human promyelocytic leukemia (HL60) cells", "test": "HL-60 differentiation (nitro blue tetrazolium reduction)", "format": "cell-based", "details": "FIG. 2; for pEC50: Homo sapiens, HL-60", "method": "The study drugs were dissolved in ethanol and the concentrations determined using UV spectrophotometry. Serial dilutions were prepared so that a range of drug concentrations could be tested without changing the final concentration of ethanol (≦0.2%) present in the cell cultures.\nHuman promyelocytic leukemia (HL60) cells were grown in RPMI-1640 medium containing 10% fetal bovine serum. The cells were incubated at 37° C. in the presence of 5% CO2.\nHL60 cells were plated at 1.2×10^5 cells/ml. Eighteen hours after plating, cells in duplicate were treated with drug. Four days later, the cells were harvested and a nitro blue tetrazolium reduction assay was performed (Collins et al., 1979; J. Exp. Med. 149:969-974). The percentage of differentiated cells was determined by counting a total of 200 cells and recording the number that contained intracellular black-blue formazan deposits. Verification of differentiation to monocytic cells was determined by measuring phagocytic activity (data not shown)."}, "[3]": {"system": "D-deficient CD-1 mice", "test": "Bone calcium mobilization, 1st in vivo study (D-deficient mice)", "details": "for Bone calcium mobilization activity (serum calcium change), overall: single intraperitoneal injection, D-deficient CD-1 mice, FIG. 4", "method": "Female, CD-1 mice (6 weeks old) were purchased from Harlan Sprague-Dawley. Upon arrival, the animals were placed in a room with filtered lighting and fed a purified, D-deficient diet (Suda et al 1970 J. Nutrition) for 17 weeks. […] Serum calcium was measured by diluting with 0.1% lanthum chloride and reading the absorbance using an atomic absorption spectrometer. The change in serum calcium from pre-dose values (baseline) is reported.\n(§1) In vivo data were analyzed by one-way ANOVA followed by pairwise comparisons when significant overall differences were detected. Post-hoc analyses includes, Tukey's, Scheffe's, and Fisher's LSD tests. Only differences (p<0.05) that were present in two out of the three post-hoc tests were considered significant.\nCalcium mobilization from bone in vitamin D-deficient animals."}, "[4]": {"molecular_target": "T1, full-length recombinant rat vitamin D receptor (Rattus norvegicus, UniProt P13053)", "T1 construct": "Full-length recombinant rat receptor was expressed in E. coli BL21 (DE3) Codon Plus RIL cells; histidine tag (C); made in house; host or cells: E. coli BL21 (DE3) Codon Plus RIL", "T1 sequence (P13053 1-423)": "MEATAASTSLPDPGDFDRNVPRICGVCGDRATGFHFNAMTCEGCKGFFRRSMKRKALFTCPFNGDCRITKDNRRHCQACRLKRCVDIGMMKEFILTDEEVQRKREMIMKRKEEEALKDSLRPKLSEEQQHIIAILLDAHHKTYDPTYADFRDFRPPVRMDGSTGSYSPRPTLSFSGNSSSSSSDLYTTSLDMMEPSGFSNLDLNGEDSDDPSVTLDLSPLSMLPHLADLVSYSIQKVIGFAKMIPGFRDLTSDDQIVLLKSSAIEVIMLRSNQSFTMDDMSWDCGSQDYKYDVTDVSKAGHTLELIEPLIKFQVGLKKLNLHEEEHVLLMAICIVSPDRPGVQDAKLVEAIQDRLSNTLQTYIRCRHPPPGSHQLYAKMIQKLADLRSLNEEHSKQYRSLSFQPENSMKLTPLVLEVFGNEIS", "test": "Vitamin D receptor competitive binding with [3H]-1,25(OH)2D3", "details": "FIG. 1; for pKi: full-length recombinant rat VDR, read-out: Ki, competition with [3H]-1,25(OH)2D3 for binding to the vitamin D receptor", "method": "Full-length recombinant rat receptor was expressed in E. coli BL21 (DE3) Codon Plus RIL cells and purified to homogeneity using two different column chromatography systems. The first system was a nickel affinity resin that utilizes the C-terminal histidine tag on this protein. The protein that was eluted from this resin was further purified using ion exchange chromatography (S-Sepharose\nFast Flow). Aliquots of the purified protein were quick frozen in liquid nitrogen and stored at −80° C. until use. For use in binding assays, the protein was diluted in TEDK50 (50 mM Tris, 1.5 mM EDTA, pH7.4, 5 mM DTT, 150 mM KCI) with 0.1% Chaps detergent. The receptor protein and ligand concentration was optimized such that no more than 20% of the added radiolabeled ligand was bound to the receptor.\nRadiolabeled and unlabeled ligands were added to 100 mcl of the diluted protein at a final ethanol concentration of ≦10%, mixed and incubated overnight on ice to reach binding equilibrium. The following day, 100 mcl of hydroxylapatite slurry (50%) was added to each tube and mixed at 10-minute intervals for 30 minutes. The hydroxylapaptite was collected by centrifugation and then washed three times with Tris-EDTA buffer (50 mM Tris, 1.5 mM EDTA, pH 7.4) containing 0.5% Titron X-100. After the final wash, the pellets were transferred to scintillation vials containing 4 ml of Biosafe II scintillation cocktail, mixed and placed in a scintillation counter. Total binding was determined from the tubes containing only radiolabeled ligand."}, "[5]": {"system": "D-sufficient CD-1 mice", "test": "Bone calcium mobilization, 2nd in vivo study (D-sufficient mice)", "details": "single intraperitoneal injection, two doses, 72 hours; FIG. 5", "method": "(§2) 6-7 week old female CD-1 mice were purchased from Harlan (Indianapolis, Ind.). The animals were group housed and fed a purified diet containing 0.47% calcium. (Suda et al 1970 J. Nutrition). After a 5-7 day acclimation period, the animals were assigned to treatment groups (n=5-6/group) and given a single dose of the designated analogues by intraperitoneal injection. Blood was collected for serum calcium concentration analyses immediately prior to dose administration and 72 hours following dose delivery. Serum calcium were analyzed as described above.\nas §1"}, "[6]": {"system": "D-sufficient CD-1 mice", "test": "Bone calcium mobilization, 3rd in vivo study (routes of administration)", "details": "FIG. 6", "from_the_text": "as §2, with “groups (n=5/group)” for “groups (n=5-6/group)”, “intraperitoneal injection or oral gavage.” for “intraperitoneal injection.”, “analyses at various timepoints” for “analyses immediately prior to dose administration and 72 hours”, “calcium was” for “calcium were”\nas §1"}}, "note": "pEC50, pKi: −log10 of the molar value. Entries after “also recorded” stand apart in the source; their conditions may differ."}
{"smiles": "C=C1/C(=C\\C=C2/CCC[C@]3(C)[C@@H]([C@H](C)CCCC(C)(C)O)CC[C@@H]23)C[C@@H](O)C[C@@H]1O", "note": "[1,25(OH)2D3, 1α,25-dihydroxyvitamin D3, reference compound]", "values": [{"measurement": "pEC50", "setting": "[1]", "result": 9.70}, {"measurement": "pEC50", "setting": "[2]", "result": 8.70}, {"measurement": "Bone calcium mobilization activity (serum calcium change), overall", "setting": "[3]", "result": "increased serum calcium levels"}]}
{"smiles": "C[C@H](CCCC(C)(C)O)[C@H]1CC[C@H]2/C(=C/C=C3/C[C@@H](O)C4=CCCO[C@@H]4C3)CCC[C@]12C", "note": "[REV-A]", "values": [{"measurement": "Transcriptional activity, result in words", "setting": "[1]", "result": "weak transcriptional activity; also recorded: much less transcriptional activity than 1α,25-dihydroxyvitamin D3"}, {"measurement": "pEC50", "setting": "[1]", "result": 7.52}, {"measurement": "pKi", "setting": "[4]", "result": 7.52}, {"measurement": "VDR binding activity relative to 1,25-(OH)2D3", "setting": "[4]; less active than 1,25-(OH)2D3", "result": "3 orders of magnitude"}, {"measurement": "HL-60 cell differentiation, result in words", "setting": "[2]", "result": "considerably less active than 1,25(OH)2D3"}, {"measurement": "pEC50", "setting": "[2]", "result": 7.00}, {"measurement": "Serum calcium change in D-sufficient mice", "setting": "[5]", "result": "no significant increase in serum calcium"}]}
{"smiles": "C[C@H](CCCC(C)(C)O)[C@H]1CC[C@H]2/C(=C/C=C3\\C[C@@H](O)C4=CCCO[C@@H]4C3)CCC[C@]12C", "note": "[REV-B]", "values": [{"measurement": "Onset of serum calcium increase compared to 1,25(OH)2D3", "setting": "[6]", "result": "significant delay"}, {"measurement": "Serum calcium increase by route of administration", "setting": "[6]; oral gavage vs. intraperitoneal injection", "result": "Both routes of administration are effective at causing an increase in serum calcium; however, intraperitoneal injection is more effective than oral gavage"}, {"measurement": "Transcriptional activity, result in words", "setting": "[1]", "result": "essentially no transcriptional activity; also recorded: lacks activity; also recorded: inactive"}, {"measurement": "VDR binding, result in words", "setting": "[4]", "result": "does not bind to the VDR; also recorded: little binding activity for VDR"}, {"measurement": "pKi", "setting": "[4]", "result": "< 5.00"}, {"measurement": "HL-60 cell differentiation, result in words", "setting": "[2]", "result": "lacks activity in cellular differentiation; also recorded: considerably less active than 1,25(OH)2D3"}, {"measurement": "pEC50", "setting": "[2]", "result": 6.00}, {"measurement": "Serum calcium change in D-sufficient mice", "setting": "[5]", "result": "remarkable in vivo activity of REV-B to raise blood calcium levels"}, {"measurement": "Calcemic response 48 hours after the dose", "setting": "[3]; D-deficient mice, analog doses exceeding thirty times that of the natural hormone, 48 hours", "result": "markedly more active"}, {"measurement": "Bone calcium mobilization activity (serum calcium change), overall", "setting": "[3]", "result": "considerable bone calcium mobilization activity"}]}
